Measurements: US20150105252A1, “SUBSTITUTED PYRAZOLES AS HERBICIDES” (E I DU PONT DE NEMOURS AND COMPANY, priority 2013, published 2015)

Legend:
Test in all cases: Test C postemergence
ryegrass, Italian = type: in vivo, Lolium multiflorum; details: postemergence
Summary of the method: (§1)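 Scores of 0 (no effect) to 100 (complete control) were assigned by eye after 13–15 days, comparing treated pots with controls. Soil-applied (preemergence) treatments went onto seeds in loam and sand; foliar (postemergence) treatments onto 1- to 4-leaf plants in peat medium.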

wheat = type: in vivo, Triticum aestivum; details: postemergence; for Plant response rating, Wheat: 250 g ai/ha, scale 0 to 100 (0 no effect, 100 complete control)
Summary of the method: as §1

galium = type: in vivo, Galium aparine; details: for Plant response rating (scale of 0 to 100 where 0 is no effect and 100 is complete control), Galium: Postemergence, 31 g ai/ha, visually evaluated after 13 to 15 days; for Galium plant response rating / Plant response rating, Galium: postemergence; for Galium plant response rating: 62 g ai/ha, scale 0 to 100
Summary of the method: as §1

corn = type: in vivo, Zea mays; details: for Plant response rating (scale of 0 to 100 where 0 is no effect and 100 is complete control), Corn: Postemergence, 31 g ai/ha, visually evaluated after 13 to 15 days; for Corn plant response rating / Plant response rating, Corn: postemergence; for Corn plant response rating: 62 g ai/ha, scale 0 to 100
Summary of the method: as §1

foxtail, giant = type: in vivo, Setaria faberii; details: for Plant response rating (scale of 0 to 100 where 0 is no effect and 100 is complete control), Foxtail, Giant: Postemergence, 31 g ai/ha, visually evaluated after 13 to 15 days; for Foxtail, Giant plant response rating / Plant response rating, Foxtail, Giant: postemergence; for Foxtail, Giant plant response rating: 62 g ai/ha, scale 0 to 100
Summary of the method: as §1

lambsquarters = type: in vivo, Chenopodium album; details: for Plant response rating (scale of 0 to 100 where 0 is no effect and 100 is complete control), Lambsquarters: Postemergence, 31 g ai/ha, visually evaluated after 13 to 15 days; for Lambsquarters plant response rating / Plant response rating, Lambsquarters: postemergence; for Lambsquarters plant response rating: 62 g ai/ha, scale 0 to 100
Summary of the method: as §1

nutsedge, yellow = type: in vivo, Cyperus esculentus; details: for Plant response rating (scale of 0 to 100 where 0 is no effect and 100 is complete control), Nutsedge, Yellow: Postemergence, 31 g ai/ha, visually evaluated after 13 to 15 days; for Nutsedge, Yellow plant response rating / Plant response rating, Nutsedge, Yellow: postemergence; for Nutsedge, Yellow plant response rating: 62 g ai/ha, scale 0 to 100
Summary of the method: as §1

pigweed = type: in vivo, Amaranthus retroflexus; details: postemergence; for Pigweed plant response rating: 62 g ai/ha, scale 0 to 100
Summary of the method: as §1

ragweed = type: in vivo, Ambrosia elation; details: postemergence
Summary of the method: as §1

soybean = type: in vivo, Glycine max; details: postemergence; for Plant response rating, Soybean: 250 g ai/ha, scale 0 to 100 (0 no effect, 100 complete control); for Soybean plant response rating: 125 g ai/ha, scale 0 to 100, 0 no effect, 100 complete control
Summary of the method: as §1

barnyardgrass = type: in vivo, Echinochloa crus-galli; details: for Plant response rating (scale of 0 to 100 where 0 is no effect and 100 is complete control), Barnyardgrass: Postemergence, 31 g ai/ha, visually evaluated after 13 to 15 days; for Barnyardgrass plant response rating / Plant response rating, Barnyardgrass: postemergence; for Barnyardgrass plant response rating: 62 g ai/ha, scale 0 to 100
Summary of the method: as §1

oilseed rape = type: in vivo, Brassica napus; details: postemergence; for Oilseed Rape plant response rating: 62 g ai/ha, scale 0 to 100
Summary of the method: as §1

waterhemp = type: in vivo, Amaranthus rudis; details: postemergence, 250 g ai/ha; scale 0 to 100 (0 no effect, 100 complete control)
Summary of the method: as §1

oat, wild = type: in vivo, Avena fatua; details: for Plant response rating (scale of 0 to 100 where 0 is no effect and 100 is complete control), Oat, Wild: Postemergence, 31 g ai/ha, visually evaluated after 13 to 15 days; for Oat, Wild plant response rating / Plant response rating, Oat, Wild: postemergence; for Oat, Wild plant response rating: 62 g ai/ha, scale 0 to 100
Summary of the method: as §1

kochia = type: in vivo, Kochia scoparia; details: for Plant response rating (scale of 0 to 100 where 0 is no effect and 100 is complete control), Kochia: Postemergence, 31 g ai/ha, visually evaluated after 13 to 15 days; for Kochia plant response rating / Plant response rating, Kochia: postemergence; for Kochia plant response rating: 62 g ai/ha, scale 0 to 100
Summary of the method: as §1

[1] = 250 g ai/ha, scale 0 to 100 (0 no effect, 100 complete control)
[2] = 125 g ai/ha, scale 0 to 100, 0 no effect, 100 complete control

SMILES: CCCNC(=O)c1cc(CCC)n(Cc2cc(C(F)(F)F)nn2C)n1 [Compound 198]
- Plant response rating, Ryegrass, Italian (ryegrass, Italian; [1]): 5
- Plant response rating, Ryegrass, Italian (ryegrass, Italian; [2]): 5
- Plant response rating, Wheat (wheat): 10
- Wheat plant response rating (wheat; scale 0 to 100): 5
- Plant response rating (scale of 0 to 100 where 0 is no effect and 100 is complete control), Galium (galium): 50
- Galium plant response rating (galium): 85
- Plant response rating, Galium (galium; [1]): 90
- Plant response rating, Galium (galium; [2]): 85
- Plant response rating (scale of 0 to 100 where 0 is no effect and 100 is complete control), Corn (corn): 5
- Corn plant response rating (corn): 10
- Plant response rating, Corn (corn; [1]): 15
- Plant response rating, Corn (corn; [2]): 10
- Plant response rating (scale of 0 to 100 where 0 is no effect and 100 is complete control), Foxtail, Giant (foxtail, giant): 10
- Foxtail, Giant plant response rating (foxtail, giant): 10
- Plant response rating, Foxtail, Giant (foxtail, giant; [1]): 55
- Plant response rating, Foxtail, Giant (foxtail, giant; [2]): 15
- Plant response rating (scale of 0 to 100 where 0 is no effect and 100 is complete control), Lambsquarters (lambsquarters): 20
- Lambsquarters plant response rating (lambsquarters): 50
- Plant response rating, Lambsquarters (lambsquarters; [1]): 85
- Plant response rating, Lambsquarters (lambsquarters; [2]): 75
- Plant response rating (scale of 0 to 100 where 0 is no effect and 100 is complete control), Nutsedge, Yellow (nutsedge, yellow): 5
- Nutsedge, Yellow plant response rating (nutsedge, yellow): 10
- Plant response rating, Nutsedge, Yellow (nutsedge, yellow; [1]): 5
- Plant response rating, Nutsedge, Yellow (nutsedge, yellow; [2]): 5
- Pigweed plant response rating (pigweed): 60
- Plant response rating, Pigweed (pigweed; [1]): 90
- Plant response rating, Pigweed (pigweed; [2]): 80
- Plant response rating, Ragweed (ragweed; [1]): 80
- Plant response rating, Ragweed (ragweed; [2]): 55
- Plant response rating, Soybean (soybean): 95
- Soybean plant response rating (soybean): 95
- Plant response rating (scale of 0 to 100 where 0 is no effect and 100 is complete control), Barnyardgrass (barnyardgrass): 5
- Barnyardgrass plant response rating (barnyardgrass): 15
- Plant response rating, Barnyardgrass (barnyardgrass; [1]): 35
- Plant response rating, Barnyardgrass (barnyardgrass; [2]): 15
- Oilseed Rape plant response rating (oilseed rape): 50
- Plant response rating, Oilseed Rape (oilseed rape; [1]): 60
- Plant response rating, Oilseed Rape (oilseed rape; [2]): 70
- Plant response rating, Waterhemp (waterhemp): 90
- Plant response rating (scale of 0 to 100 where 0 is no effect and 100 is complete control), Oat, Wild (oat, wild): 10
- Oat, Wild plant response rating (oat, wild): 10
- Plant response rating, Oat, Wild (oat, wild; [1]): 45
- Plant response rating, Oat, Wild (oat, wild; [2]): 20
- Plant response rating (scale of 0 to 100 where 0 is no effect and 100 is complete control), Kochia (kochia): 80
- Kochia plant response rating (kochia): 80
- Plant response rating, Kochia (kochia; [1]): 90
- Plant response rating, Kochia (kochia; [2]): 85

SMILES: CCc1cc(C(=O)NCC2CC2)nn1Cc1ccnc(C(F)(F)F)c1 [Compound 199]
- Plant response rating, Ryegrass, Italian (ryegrass, Italian; [1]): 10
- Plant response rating, Ryegrass, Italian (ryegrass, Italian; [2]): 10
- Plant response rating, Wheat (wheat): 5
- Plant response rating (scale of 0 to 100 where 0 is no effect and 100 is complete control), Galium (galium): 60
- Galium plant response rating (galium): 70
- Plant response rating, Galium (galium; [1]): 90
- Plant response rating, Galium (galium; [2]): 80
- Plant response rating (scale of 0 to 100 where 0 is no effect and 100 is complete control), Corn (corn): 5
- Corn plant response rating (corn): 10
- Plant response rating, Corn (corn; [1]): 65
- Plant response rating, Corn (corn; [2]): 85
- Plant response rating (scale of 0 to 100 where 0 is no effect and 100 is complete control), Foxtail, Giant (foxtail, giant): 10
- Foxtail, Giant plant response rating (foxtail, giant): 10
- Plant response rating, Foxtail, Giant (foxtail, giant; [1]): 50
- Plant response rating, Foxtail, Giant (foxtail, giant; [2]): 50
- Plant response rating (scale of 0 to 100 where 0 is no effect and 100 is complete control), Lambsquarters (lambsquarters): 25
- Lambsquarters plant response rating (lambsquarters): 85
- Plant response rating, Lambsquarters (lambsquarters; [1]): 95
- Plant response rating, Lambsquarters (lambsquarters; [2]): 70
- Plant response rating (scale of 0 to 100 where 0 is no effect and 100 is complete control), Nutsedge, Yellow (nutsedge, yellow): 5
- Nutsedge, Yellow plant response rating (nutsedge, yellow): 10
- Plant response rating, Nutsedge, Yellow (nutsedge, yellow; [1]): 20
- Plant response rating, Nutsedge, Yellow (nutsedge, yellow; [2]): 45
- Pigweed plant response rating (pigweed): 60
- Plant response rating, Pigweed (pigweed; [1]): 90
- Plant response rating, Pigweed (pigweed; [2]): 75
- Plant response rating, Ragweed (ragweed; [1]): 75
- Plant response rating, Ragweed (ragweed; [2]): 20
- Plant response rating, Soybean (soybean): 95
- Soybean plant response rating (soybean): 75
- Plant response rating (scale of 0 to 100 where 0 is no effect and 100 is complete control), Barnyardgrass (barnyardgrass): 10
- Barnyardgrass plant response rating (barnyardgrass): 10
- Plant response rating, Barnyardgrass (barnyardgrass; [1]): 45
- Plant response rating, Barnyardgrass (barnyardgrass; [2]): 30
- Oilseed Rape plant response rating (oilseed rape): 45
- Plant response rating, Oilseed Rape (oilseed rape; [1]): 65
- Plant response rating, Oilseed Rape (oilseed rape; [2]): 55
- Plant response rating, Waterhemp (waterhemp): 75
- Plant response rating (scale of 0 to 100 where 0 is no effect and 100 is complete control), Oat, Wild (oat, wild): 5
- Oat, Wild plant response rating (oat, wild): 10
- Plant response rating, Oat, Wild (oat, wild; [1]): 80
- Plant response rating, Oat, Wild (oat, wild; [2]): 30
- Plant response rating (scale of 0 to 100 where 0 is no effect and 100 is complete control), Kochia (kochia): 80
- Kochia plant response rating (kochia): 85
- Plant response rating, Kochia (kochia; [1]): 95
- Plant response rating, Kochia (kochia; [2]): 90

SMILES: CCc1cc(C(=O)NC2CC2)nn1Cc1ccnc(OCC(F)(F)F)c1 [Compound 200]
- Plant response rating, Ryegrass, Italian (ryegrass, Italian; [1]): 15
- Plant response rating, Ryegrass, Italian (ryegrass, Italian; [2]): 15
- Plant response rating, Wheat (wheat): 10
- Plant response rating (scale of 0 to 100 where 0 is no effect and 100 is complete control), Galium (galium): 50
- Galium plant response rating (galium): 50
- Plant response rating, Galium (galium; [1]): 75
- Plant response rating, Galium (galium; [2]): 75
- Plant response rating (scale of 0 to 100 where 0 is no effect and 100 is complete control), Corn (corn): 5
- Corn plant response rating (corn): 5
- Plant response rating, Corn (corn; [1]): 20
- Plant response rating, Corn (corn; [2]): 10
- Plant response rating (scale of 0 to 100 where 0 is no effect and 100 is complete control), Foxtail, Giant (foxtail, giant): 5
- Foxtail, Giant plant response rating (foxtail, giant): 10
- Plant response rating, Foxtail, Giant (foxtail, giant; [1]): 15
- Plant response rating, Foxtail, Giant (foxtail, giant; [2]): 15
- Plant response rating (scale of 0 to 100 where 0 is no effect and 100 is complete control), Lambsquarters (lambsquarters): 55
- Lambsquarters plant response rating (lambsquarters): 65
- Plant response rating, Lambsquarters (lambsquarters; [1]): 95
- Plant response rating, Lambsquarters (lambsquarters; [2]): 65
- Plant response rating (scale of 0 to 100 where 0 is no effect and 100 is complete control), Nutsedge, Yellow (nutsedge, yellow): 0
- Nutsedge, Yellow plant response rating (nutsedge, yellow): 0
- Plant response rating, Nutsedge, Yellow (nutsedge, yellow; [1]): 10
- Plant response rating, Nutsedge, Yellow (nutsedge, yellow; [2]): 5
- Pigweed plant response rating (pigweed): 60
- Plant response rating, Pigweed (pigweed; [1]): 80
- Plant response rating, Pigweed (pigweed; [2]): 75
- Plant response rating, Ragweed (ragweed; [1]): 45
- Plant response rating, Ragweed (ragweed; [2]): 45
- Plant response rating, Soybean (soybean): 90
- Soybean plant response rating (soybean): 90
- Plant response rating (scale of 0 to 100 where 0 is no effect and 100 is complete control), Barnyardgrass (barnyardgrass): 0
- Barnyardgrass plant response rating (barnyardgrass): 5
- Plant response rating, Barnyardgrass (barnyardgrass; [1]): 10
- Plant response rating, Barnyardgrass (barnyardgrass; [2]): 5
- Oilseed Rape plant response rating (oilseed rape): 30
- Plant response rating, Oilseed Rape (oilseed rape; [1]): 60
- Plant response rating, Oilseed Rape (oilseed rape; [2]): 60
- Plant response rating, Waterhemp (waterhemp): 85
- Plant response rating (scale of 0 to 100 where 0 is no effect and 100 is complete control), Oat, Wild (oat, wild): 5
- Oat, Wild plant response rating (oat, wild): 10
- Plant response rating, Oat, Wild (oat, wild; [1]): 20
- Plant response rating, Oat, Wild (oat, wild; [2]): 10
- Plant response rating (scale of 0 to 100 where 0 is no effect and 100 is complete control), Kochia (kochia): 90
- Kochia plant response rating (kochia): 90
- Plant response rating, Kochia (kochia; [1]): 90
- Plant response rating, Kochia (kochia; [2]): 90
